Experiments:
[1] = system: PKG-1; assay: Whole heart PKG-1 activity; assay type: in vivo, mouse; settings: chronic treatment
Experimental: PI3Kα activity was assessed by Elisa assay following immunoprecipitation of PI3K (Seize X IP Kit, Pierce) using a p85α monoclonal antibody (Cell Signaling), with activity measured by fluorescence polarization (Molecular Devices, Perkin-Elmer Victor 3 plate reader). Akt activity (IP with s473-pAkt Ab, GSK-3 fusion protein substrate) was performed using a commercial kit (Cell Signaling Technology, Beverly, Mass.). PKG-1 activity was assayed by calorimetric analysis, CycLex (Clinisciences, Montrouge, FR) from whole heart lysates.

[2] = system: total cGMP-esterase activity; assay: cGMP-esterase (low Km cGMP phosphodiesterase) activity of heart and isolated myocytes; assay type: biochemical, mouse
[3] = system: myocardial cGMP; assay: Myocardial cyclic nucleotide levels; assay type: in vivo, mouse
Excerpt: Hearts were washed in ice-cold PBS, homogenized in 6% trichloroacetic acid, centrifuged and extracted with water-saturated ether. The aqueous layer was transferred, vacuum dried, and the pellet resuspended in sodium acetate buffer for cAMP and cGMP enzyme immunoassay (Amersham Pharmacia Biotech, Buckinghamshire, UK).

[4] = system: calcineurin; assay: Calcineurin expression in TAC hearts (Western blot); assay type: in vivo, mouse; settings: 1 and 9 weeks of TAC
Experimental: (§1) Protein was prepared from snap-frozen heart tissue using extraction buffer as described previously^90. Antibodies included calcineurin (1:2000 dilution, BD Transduction Laboratories (San Diego, Calif.), GSK3β, Ser9-phospho-GSK313, Akt, Ser473-phospho-Akt, ERK, Thr202/Thr204-phospho-ERK (1:1000 dilution, Cell Signaling Technology, Beverly, Mass.). Primary antibody binding was visualized by horse radish peroxidase-conjugated secondary antibodies and enhanced chemiluminescence (Pierce, Rockford, Ill.).

[5] = system: ERK1/2; assay: ERK1/2 activation in TAC hearts (Western blot); assay type: in vivo, mouse
Experimental: as §1

[6] = system: GSK3β; assay: GSK3β phosphorylation in TAC hearts (Western blot); assay type: in vivo, mouse
Experimental: as §1

[7] = system: neonatal rat cardiac myocytes; assay: Phenylephrine-induced hypertrophy of neonatal rat cardiomyocytes (sarcomere organization, 3H-leucine incorporation); assay type: cell-based; settings: phenylephrine 1 μM, sildenafil 100 nM or 1 μM
[8] = system: NFAT; assay: NFAT promoter activation in neonatal rat myocytes (β-galactosidase / luciferase reporter); assay type: cell-based; settings: stimulated by PE or BayK8644, 1 μM sildenafil
Experimental: Rat neonatal cardiac myocytes were isolated from 1- to 2-day-old Sprague-Dawley rats as described^50. […] Sigma Chemical (St. […] To assess NFAT activation, cells were transfected with adenovirus expressing the three NFAT-binding sites linked to β-galactosidase ([…]), using previously described methods^72. Additional studies were performed using an alternative reporter adenovirus encoding luciferase driven by the NFAT promoter. This was performed twenty-four hours prior to PE, BayK8644, or activated calcineurin stimulation. The latter was achieved by a co-transfection with a replication-deficient adenovirus encoding a Ca^2+-independent, constitutively active, truncated mouse calcineurin […]^72). […] After an additional forty-eight hours, NFAT activation was assessed by β-galactosidase histology/activity or luciferase activity. […] Luciferase activity was assayed by commercial kit (Stratagene, La Jolla, Calif.) and read on a plate luminometer.

[9] = system: C57bl6 mice, isoproterenol-stimulated heart; assay: Acute isoproterenol-stimulated contractility in intact mice (pressure-volume relations); assay type: in vivo, mouse
Experimental: Isoproterenol (ISO: 20 ng/kg/minutes i.v.×5 min) with or without PDE5A inhibitor was given to anesthetized intact mice, and in vivo heart function assessed by pressure-volume relations at a fixed atrial pacing rate of 600-650 min^−1. Data were measured at baseline, with ISO, re-baseline, PDE5A-inhibition, and PDE5A inhibition+ISO. The ISO-only response was highly reproducible.

[10] = system: NOS3; assay: NOS3 dimer/monomer Western blot in TAC hearts; assay type: in vivo, mouse; settings: 3 weeks TAC
[11] = system: MMP-2 and MMP-9; assay: Cardiac gelatinase zymography; assay type: in vivo, mouse; settings: 3W TAC, co-treatment
Experimental: In Vitro gelatin lysis by MMP-2 and MMP-9 was assessed by zymography. Briefly, modified Laemmli buffer without mercaptoethanol was added to lysed tissue samples and loaded on 10% gelatin (Invitrogen Corp., San Diego, Calif.). After electrophoresis, gels were washed twice with renaturing buffer at room temperature followed by developing buffer (Invitrogen Corp., San Diego, Calif.), then stained with a commercially available Coomassie stain to visualize lytic bands (SIMPLYBLUe, Invitrogen Corp., San Diego, Calif.).

[12] = system: RhoA, ROCK1 and ROCK2; assay: RhoA and Rho kinase expression and activity in TAC hearts; assay type: in vivo, mouse; settings: 3 weeks TAC
Experimental: RhoA activity assay was performed by immunoprecipitation using a commercially available immobilized antibody (SEIZE X IP, Pierce Biotechnology, IL). The antibody used was a rabbit polyclonal antibody raised against RboA (Upstate, NY [1:2500]) and subsequent commercial activity assay according to manufacturer's specification (Upstate Biotechnology, NY).
Protein lysates from whole myocardium and isolated cardiac myocytes were obtained using lysis buffer (Cell Signaling Technology, Beverly, Mass.) with mini-protease inhibitor (Roche, Ind.) and 5% Triton (Sigma Chemical (St. Louis, Mo.). Following 12,000 g centrifugation for 30 minutes, protein was quantified (Pierce Rockford, Ill.), NUPage LDS sample buffer added (Biorad, Hercules, Calif.), and lysates electrophoresed on NuPAGE 4-12% Bis-Tris polyacrylamide gels (Invitrogen, San Diego, Calif.). Membranes were incubated with rabbit polyclonal antibodies raised against ROCK1 or ROCK2 (Cell Signaling Technology, Beverly, Mass.) [1:3,000].

[13] = system: STAT3; assay: STAT3 phosphorylation in TAC hearts; assay type: in vivo, mouse
Experimental: Myocardial tissue extract was electrophoresed in SDS-New Page gel, and probed for both tyrosine phosphorylated (Tyr705) and total Stat3. In additional studies, rat neonatal myocytes were cultured, then exposed to interleukin 6 (IL-6, Cell Signaling, 100 ng/ml) for one hour. […] In other studies, cells were pre-transfected (Lipofectamine™, Invitrogen) with mixed oligonucleotide silencing RNAs for STAT3 (siRNA, SmarTTpool Stat3). Protein extracts were obtained from myocyte extracts after the 1 hour incubation period, and probed for phosphorylated and total protein levels of Stat1 (Tyr701) and Stat3 (Tyr705) (Cell Signaling Inc.). siRNA was transfected into neonatal myocytes.

CCCc1nn(C)c2c(=O)[nH]c(-c3cc(S(=O)(=O)N4CCN(C)CC4)ccc3OCC)nc12 [sildenafil]
whole heart PKG-1 activity ([1]; TAC hearts): more than doubled PKG-1 activity
whole heart PKG-1 activity ([1]; sham controls): no effect on activity
proportion of total cGMP-esterase activity attributable to PDE5 ([2]; 3 week TAC hearts): ~60%
PDE5A-dependent cGMP-esterase activity by radio-enzyme assay ([2]; NTG, n=9): 32±17.3%
percent of total cGMP-esterase activity blocked by co-incubation ([2]; sham control hearts (baseline)): approximately 30%
total myocardial cGMP ([3]; TAC hearts, chronic co-treatment): declined
myocardial cAMP levels ([3]; basal or TAC conditions): did not alter myocardial cAMP levels
total myocardial cGMP ([3]; sham controls, chronic treatment): did not change
calcineurin protein expression [4]: significantly reduced
ERK1/2 activation (phospho/total) ([5]; 1-week TAC): suppressed
ERK1/2 activation (phospho/total) ([5]; 9-weeks TAC): no demonstrable effect
GSK3β activation ([6]; 1-week TAC): remained unchanged
Akt and GSK3β activation ([6]; 9-weeks TAC): reduced both
PE-induced cellular hypertrophy (sarcomere organization, protein synthesis) [7]: suppressed
NFAT promoter activation [8]: suppressed activation
isoproterenol-stimulated contractility in intact heart ([9]; acute intravenous administration): marked suppression of this adrenergic stimulation response
effect on the heart at rest (dP/dtmax) ([9]; given alone, no ISO): no effect on the heart at rest
NOS3 dimer (280 kD) level [10]: prevented the loss of NOS dimer
gelatinase activity (gel lysis) [11]: largely inhibited
RhoA and Rho-kinase expression and activity [12]: inhibits RhoA, Rho-Kinase1 (ROCK1) and Rho-Kinase2 protein expression and activity
STAT3 activation (phosphorylation) [13]: inhibits activation of STAT3

— US8299083B2, “PDE5 inhibitor compositions and methods for treating cardiac indications” (The Johns Hopkins University, priority 2004, dated 2012)
